Tests used:
[1] = system: SphK; experiment: SphK activity in HUVEC; format: cell-based, human; conditions: for effect on high glucose-induced increases in SphK activity: PD98059 10 μM, U0126 2 μM; for effect on SphK activity: 22 mmol/L, osmotic control
Method: Human umbilical vein EC (HUVEC) and bovine aortic EC (BAEC) were routinely cultured in this laboratory as previously described ([…] et al., 2004, Circ. Res. 94:1515-1522). In all experiments EC ranging from passage 2-6 were used. For the experimental studies, EC were allowed to reach confluence in the regular growth media. Medium was then changed to (i) EBM (Clonetics, Walkersville, Md.) containing 1% FCS and 5.5 mM glucose (normal glucose, NG); (ii) NG medium supplemented with additional glucose to final concentration of 22 mM (high glucose); or (iii) NG medium containing 16.5 mM L-glucose or mannitol that served as an osmotic control for the high glucose medium. As described previously (Xia et al., 1999, J. Biol. […] The formation of S1P in vivo was measured in the permeabilized cells as previously described (Xia et al., 1998, Proc. Natl. Acad. Sci. U.S.A 95:14196-14201).

[2] = system: E-selectin; experiment: Cell surface E-selectin expression in HUVEC by flow cytometry; format: cell-based, human; conditions: for effect on E-selectin expression: 5 μM for 6 hrs
Method: (§1) Human umbilical vein EC (HUVEC) and bovine aortic EC (BAEC) were routinely cultured in this laboratory as previously described (Verrier et al., 2004, Circ. Res. 94:1515-1522). In all experiments EC ranging from passage 2-6 were used. For the experimental studies, EC were allowed to reach confluence in the regular growth media. Medium was then changed to (i) EBM (Clonetics, Walkersville, Md.) containing 1% FCS and 5.5 mM glucose (normal glucose, NG); (ii) NG medium supplemented with additional glucose to final concentration of 22 mM (high glucose); or (iii) NG medium containing 16.5 mM L-glucose or mannitol that served as an osmotic control for the high glucose medium.
(§2) After the indicated treatment, HUVECs were incubated with primary monoclonal antibodies to VCAM-1, ICAM-1 and E-selectin or an isotype-matched non-relevant antibody for 30 min. Cells were then incubated with FITC-conjugated secondary antibody and fixed in 2.5% formaldehyde. The expression of cell-surface adhesion molecules was measured as fluorescence intensity by use of a Coulter Epics Profile XL flow cytometer, as described previously (Verrier et al., 2004, supra).

[3] = system: SphK; experiment: SphK activity in BAEC (parental or transfected); format: cell-based, bovine; conditions: for effect on SphK activity: BAEC, 22 mmol/L, osmotic control
Method: as §1
(§3) FLAG-tagged human wild-type SphK1 cDNA and the dominant negative SphK1^G82D were sub-cloned into pcDNA3 plasmids (Invitrogen, Melbourne, Australia) as previous described (Pitson et al., 2000, J. Biol. Chem. 275:33945-33950). Lipofectamine 2000 (Invitrogen) mediated transfection was performed in BAEC according to the manufacturer's protocols. For stable expression, the transfectants were selected in medium containing 800 μg/ml G418 (Invitrogen). The resulting non-clonal pools of G418-resistant transfected cells were then collected and used to avoid clonal variability. The expression of FLAG-tagged transgenes was determined by Westernblot assay with the antibodies against FLAG (M2, Sigma, Clayton, Australia).
(§4) As described previously (Xia et al., 1999, J. Biol. Chem. 274:34499-34505), SphK activity was routinely determined using D-erythro-sphingosine (Biomol, Plymouth Meeting, Pa.) and [γ^32P]ATP (Geneworks, Adelaide, Australia) as substrates, and defined as picomoles of S1P formed per min per mg protein. The formation of S1P in vivo was measured in the permeabilized cells as previously described (Xia et al., 1998, Proc. Natl. Acad. Sci. U.S.A 95:14196-14201).

[4] = system: S1P formation; experiment: S1P formation in endothelial cells; format: cell-based, human; conditions: 22 mmol/L
Method: as §1, §4

[5] = system: VCAM-1; experiment: Cell surface VCAM-1 expression in HUVEC by flow cytometry; format: cell-based, human; conditions: 50 ng/ml, vs untreated cells
Method: as §1, §2

[6] = system: U937 cells adhering to HUVEC; experiment: Adherence of U937 cells to HUVEC; format: cell-based, human; conditions: 50 ng/ml
Method: (§5) U937 cells (CRL 1593.2; ATCC) were grown in RPMI-1640 medium (GIBCO BRL) containing 10% FCS, collected by low-speed centrifugation and resuspended at a density of 2×10^5 cells/ml in medium without FCS. EC were seeded into 24-well plates and cultured with NG or HG medium for 3 days after confluence. After washing twice with warm RPMI-1640 medium, the U937 cell suspension (100 μl/well) was added and incubated for 30 minutes at 37° C. Non-adherent cells were removed by rinsing the plates three times with PBS, and the number of adherent cells was then counted under microscopy with at least 6 fields per well culture being quantified.

[7] = system: ICAM-1; experiment: Cell surface ICAM-1 expression in HUVEC by flow cytometry; format: cell-based, human; conditions: 50 ng/ml, vs untreated cells
Method: as §1, §2

[8] = system: U937 cells adhering to BAEC; experiment: Adherence of U937 cells to transfected BAEC; format: cell-based, bovine; conditions: stably transfected BAEC, 22 mM glucose 3 days
Method: as §3, §5

## COc1cccc(-c2cc(=O)c3ccccc3o2)c1N [PD98059]
[1]; 30 min
  effect on high glucose-induced increases in SphK activity: completely prevented

## N#CC(=C(/N)Sc1ccccc1N)/C(C#N)=C(\N)Sc1ccccc1N [U0126]
[1]; 30 min
  effect on high glucose-induced increases in SphK activity: completely prevented

## CCCCCCCCCCCCCCC[C@@H](O)[C@@H](N)COP(=O)(O)O [dihydro-S1P, sphinganine-1-phosphate]
[2]
  effect on E-selectin expression: no significant effect

## OC[C@@H](O)[C@@H](O)[C@H](O)[C@H](O)CO [mannitol]
[3]
  effect on SphK activity: neither mannitol nor L-glucose at 22 mmol/L had any significant effects
[1]
  effect on SphK activity: neither mannitol nor L-glucose at 22 mmol/L had any significant effects
[4]
  effect on S1P production: fails to activate sphingosine kinase or effect S1P production

## pertussis toxin
[5]
  inhibition of high glucose-induced expression of VCAM-1: 30%
[6]
  number of leukocytes adhering to high glucose-stimulated EC: partially, but significantly, reduced
[7]
  inhibition of high glucose-induced expression of ICAM-1: 42%
[2]; 50 ng/ml, vs untreated cells
  inhibition of high glucose-induced expression of E-selectin: 35%
[2]; 5 μM LPA 6 hrs, PTX 50 ng/ml
  inhibition of LPA-induced E-selectin expression: completely inhibited
[2]; 5 μM S1P 6 hrs, PTX 50 ng/ml
  inhibition of S1P-induced E-selectin expression: 32%

## CCCCCCCCCCCCC/C=C/[C@@H](O)[C@@H](N)COP(=O)(O)O [S1P, sphingosine-1-phosphate]
[2]
  effect on E-selectin expression: significant increase

## CN(C)CCCn1cc(C2=C(c3c[nH]c4ccccc34)C(=O)NC2=O)c2ccccc21 [GF109203X]
[1]; 5 μM, 30 min
  attenuation of high glucose-induced increases in SphK activity: ~50%

## O=C[C@@H](O)[C@H](O)[C@@H](O)[C@@H](O)CO [L-glucose]
[3]
  effect on SphK activity: neither mannitol nor L-glucose at 22 mmol/L had any significant effects
[1]
  effect on SphK activity: neither mannitol nor L-glucose at 22 mmol/L had any significant effects
[4]
  effect on S1P production: fails to activate sphingosine kinase or effect S1P production

## lysophosphatidic acid [LPA]
[2]
  effect on E-selectin expression: significant increase

B1: SphK^WT: FLAG-tagged wild-type human SphK1 stably overexpressed in BAEC by transfection (protein, UniProt Q9NYA1 1-384, looked up)
Sphingosine kinase 1: MDPAGGPRGVLPRPCRVLVLLNPRGGKGKALQLFRSHVQPLLAEAEISFTLMLTERRNHARELVRSEELGRWDALVVMSGDGLMHEVVNGLMERPDWETAIQKPLCSLPAGSGNALAASLNHYAGYEQVTNEDLLTNCTLLLCRRLLSPMNLLSLHTASGLRLFSVLSLAWGFIADVDLESEKYRRLGEMRFTLGTFLRLAALRTYRGRLAYLPVGRVGSKTPASPVVVQQGPVDAHLVPLEEPVPSHWTVVPDEDFVLVLALLHSHLGSEMFAAPMGRCAAGVMHLFYVRAGVSRAMLLRLFLAMEKGRHMEYECPYLVYVPVVAFRLEPKDGKGVFAVDGELMVSEAVQGQVHPNYFWMVSGCVEPPPSWKPQQMPPPEEPL
modifications: FLAG tag
notes: FLAG-tagged wild-type human SphK1 stably overexpressed in BAEC by transfection
[3]; stably transfected BAEC
  basal level of SphK activity, higher than control cells: 10 fold
[8]
  number of leukocytes adhering to high glucose-stimulated BAEC: markedly enhanced
